Assay results published in US20110123600A1, “Use of alkylureas for treating acne” (priority 2005, published 2011).

Tests used:
[1] = system: Candida albicans; test: Plate count after one hour contact with butylurea solution; type: cell-based; conditions: 0.4M BU, vs saline control
Description: (§1) Preparation of Sample: 11.6 grams of butyl urea (BU) sample was weighed accurately and dissolved in de-ionized water to 100 ml into 100 ml volumetric flask and mixed to form a 1M (11.6% w/v) solution. Then, 10.0 ml of the 1M solution was mixed with 12.7 ml de-ionized water to form a 0.44M (5.1% w/v) solution. (10.0 ml×1.0M÷22.7 ml=0.44M). Finally, the 0.44M solution was filtered through sterile syringe filters to sterilize.
(§2) Procedure: For the 0.4M butylurea solutions, 4.5 ml was aliquoted into seven (7) 16×150 mm sterile glass test tubes. 4.5 ml sterile physiological saline was also aliquoted into seven (7) 16×150 […] sterile glass test tubes as a control.
(§3) 0.6 ml of culture suspension was inoculated into 0.44M BU and saline control tube for each organism tested and mixed. After one hour contact time a 1.0 ml sample culture mixer was diluted serially into 10^6 into 9.0 ml GBL Stat Broth (TSB; 0.5% Leethen; 4% Tween 20 and 0.1% […]).
(§4) One ml Aerobic Plate Count was performed from each dilution tubes using Trypticase Soy Agar. Plates were incubated at 37±° C. for 48 hours. Except Candida albicans plates were poured with Sabourad Dextrose Agar and incubated at 20 to 25° C. for 5 to 7 days. Colonies were counted using a Quebec Colony Counter.

[2] = system: inflamed cystic lesions of acne; test: BU in polymer gel applied topically to patients with inflamed cystic lesions of acne; type: in vivo; conditions: polymer gel releasing 0.4 to 0.5 molar BU, 11 patients
Description: BU in polymer gels: BU incorporated in a polymer gel designed to release the chemical within 30 minutes to 3 hours was administered topically to 11 patients with inflamed cystic lesions of acne. The BU end concentration to be released was between 0.4 to 0.5 molar. Applications to the lesions alone were made 3× daily for 1 week. […] The purulent discharge as well as the inflammatory component of all lesions resolved often within 24 hours.

[3] = system: acne lesions; test: BU aqueous solution applied to acne lesions in adolescents; type: in vivo; conditions: 0.5 molar (5.8% w/v) aqueous solution, twice daily, 5 adolescents
Description: BU in an squeous solution: A 0.5 molar (5.8% w/v) solution of BU was applied twice daily with Q tips to acne lesions in 5 adolescents. BU was applied to cystic purulent lesions, to non cystic lesions with erythema and to early lesions with minimal inflammation. The inflammatory response resolved in all lesions within 24-48 hours, whereas purulent cystic lesions healed without scarring within 3-7 days.

[4] = system: Staphylococcus aureus; test: Aerobic plate count after one hour contact with butylurea solution; type: cell-based; conditions: 0.4M BU, vs saline control
Description: as §1, §2, §3, §4

[5] = system: Streptococcus pyogenes; test: as above; type: cell-based; conditions: 0.4M BU, vs saline control
Description: as §1, §2, §3, §4

CCCCNC(N)=O [BU, butyl urea]
log Reduction in count [1]: 0.4 log Reduction | Local adverse reactions ([2]; topical 3x daily for 1 week): no local adverse reactions were noted | Resolution of lesions by the end of the treatment ([2]; topical 3x daily for 1 week): Most of the lesions resolved | Time to resolution of purulent discharge and inflammatory component of all lesions ([2]; topical 3x daily, 'often'): ≤ 24 h | Time to healing of purulent cystic lesions without scarring [3]: 3 to 7 days | Time to resolution of inflammatory response in all lesions [3]: 24 to 48 h | Reduction in bacterial count [4]: Not Active | log Reduction in bacterial count [5]: 2 log Reduction
